In ChEMBL document CHEMBL4346757, “Synthesis and biological evaluation of 7-methoxy-1-(3,4,5-trimethoxyphenyl)-4,5-dihydro-2H-benzo[e]indazoles as new colchicine site inhibitors” (Bioorg Med Chem Lett, 2019):

How the values were obtained:
Type in all cases: functional
[1] = system: HCC 2998; assay: Growth inhibition of human HCC2998 cells assessed as cell growth at 0.01 uM after 48 hrs by SRB assay relative to control; conditions: HCC 2998, 48 h, read-out: Activity
[2] = system: Malme-3M; assay: Growth inhibition of human MALME-3M cells assessed as cell growth at 0.01 uM after 48 hrs by SRB assay relative to control; conditions: read-out: Activity
[3] = system: UACC-62; assay: Growth inhibition of human UACC62 cells assessed as cell growth at 0.01 uM after 48 hrs by SRB assay relative to control; conditions: UACC-62, 48 h, read-out: Activity
[4] = system: KM12; assay: Growth inhibition of human KM12 cells assessed as cell growth at 0.1 uM after 48 hrs by SRB assay relative to control; conditions: KM12, 48 h, read-out: Activity
[5] = system: SK-MEL-2; assay: Growth inhibition of human SK-MEL-2 cells assessed as cell growth at 0.1 uM after 48 hrs by SRB assay relative to control; conditions: SK-MEL-2, 48 h, read-out: Activity
[6] = system: OVCAR-4; assay: Growth inhibition of human OVCAR4 cells assessed as cell growth at 0.1 uM after 48 hrs by SRB assay relative to control; conditions: OVCAR-4, 48 h, read-out: Activity
[7] = system: UO-31; assay: Growth inhibition of human UO31 cells assessed as cell growth at 0.1 uM after 48 hrs by SRB assay relative to control; conditions: UO-31, 48 h, read-out: Activity
[8] = system: MDA-MB-231; assay: Growth inhibition of human MDA-MB-231/ATCC cells assessed as cell growth at 0.1 uM after 48 hrs by SRB assay relative to control; conditions: MDA-MB-231, 48 h, read-out: Activity
[9] = system: CCRF-CEM; assay: Growth inhibition of human CCRF-CEM cells assessed as cell growth at 1 uM after 48 hrs by SRB assay relative to control; conditions: read-out: Activity
[10] = system: SR; assay: Growth inhibition of human SR cells assessed as cell growth at 1 uM after 48 hrs by SRB assay relative to control; conditions: read-out: Activity
[11] = system: HT-29; assay: Growth inhibition of human HT-29 cells assessed as cell growth at 1 uM after 48 hrs by SRB assay relative to control; conditions: HT-29, 48 h, read-out: Activity
[12] = system: SF-268; assay: Growth inhibition of human SF268 cells assessed as cell growth at 1 uM after 48 hrs by SRB assay relative to control; conditions: SF-268, 48 h, read-out: Activity
[13] = system: U-251; assay: Growth inhibition of human U251 cells assessed as cell growth at 1 uM after 48 hrs by SRB assay relative to control; conditions: U-251, 48 h, read-out: Activity
[14] = system: NCI/ADR-RES; assay: Growth inhibition of human NCI-ADR-RES cells assessed as cell growth at 1 uM after 48 hrs by SRB assay relative to control; conditions: read-out: Activity
[15] = system: UO-31; assay: Growth inhibition of human UO31 cells assessed as cell growth at 1 uM after 48 hrs by SRB assay relative to control; conditions: UO-31, 48 h, read-out: Activity
[16] = system: Hs-578T; assay: Growth inhibition of human Hs 578T cells assessed as cell growth at 1 uM after 48 hrs by SRB assay relative to control; conditions: read-out: Activity
[17] = system: T47D; assay: Growth inhibition of human T47D cells assessed as cell growth at 1 uM after 48 hrs by SRB assay relative to control; conditions: read-out: Activity
[18] = system: HOP-62; assay: Growth inhibition of human HOP62 cells assessed as cell growth at 10 uM after 48 hrs by SRB assay relative to control; conditions: HOP-62, 48 h, read-out: Activity
[19] = system: HCT-116; assay: Growth inhibition of human HCT116 cells assessed as cell growth at 10 uM after 48 hrs by SRB assay relative to control; conditions: HCT-116, 48 h, read-out: Activity
[20] = system: IGROV-1; assay: Growth inhibition of human IGROV1 cells assessed as cell growth at 10 uM after 48 hrs by SRB assay relative to control; conditions: IGROV-1, 48 h, read-out: Activity
[21] = system: NCI/ADR-RES; assay: Growth inhibition of human NCI-ADR-RES cells assessed as cell growth at 10 uM after 48 hrs by SRB assay relative to control; conditions: read-out: Activity
[22] = system: PC-3; assay: Growth inhibition of human PC3 cells assessed as cell growth at 10 uM after 48 hrs by SRB assay relative to control; conditions: PC-3, 48 h, read-out: Activity
[23] = system: A549; assay: Growth inhibition of human A549/ATCC cells assessed as cell growth at 100 uM after 48 hrs by SRB assay relative to control; conditions: A549, 48 h, read-out: Activity
[24] = system: SF-539; assay: Growth inhibition of human SF539 cells assessed as cell growth at 100 uM after 48 hrs by SRB assay relative to control; conditions: SF-539, 48 h, read-out: Activity
[25] = system: Malme-3M; assay: Growth inhibition of human MALME-3M cells assessed as cell growth at 100 uM after 48 hrs by SRB assay relative to control; conditions: read-out: Activity
[26] = system: OVCAR-5; assay: Growth inhibition of human OVCAR5 cells assessed as cell growth at 100 uM after 48 hrs by SRB assay relative to control; conditions: OVCAR-5, 48 h, read-out: Activity
[27] = system: BT-549; assay: Growth inhibition of human BT549 cells assessed as cell growth at 100 uM after 48 hrs by SRB assay relative to control; conditions: BT-549, 48 h, read-out: Activity
[28] = system: IGROV-1; assay: Cytotoxicity against human IGROV1 cells assessed as growth inhibition after 48 hrs by SRB assay; conditions: IGROV-1, 48 h
[29] = system: SK-OV-3; assay: Cytotoxicity against human SKOV3 cells assessed as growth inhibition after 48 hrs by SRB assay; conditions: SK-OV-3, 48 h
[30] = system: 786-0; assay: Cytotoxicity against human 786-0 cells assessed as growth inhibition after 48 hrs by SRB assay; conditions: 786-0, 48 h
[31] = system: MCF7; assay: Cytotoxicity against human MCF7 cells assessed as growth inhibition after 48 hrs by SRB assay; conditions: MCF7, 48 h
[32] = read-out: LC50 (the source's name)
[33] = read-out: pLC50 (the source's name) (converted)

## COc1ccc2c(c1)CCc1n[nH]c(-c3cc(OC)c(OC)c(OC)c3)c1-2
[1]
  growth at 0.01 µM: 15%
[2]
  growth at 0.01 µM: 46%
[3]
  growth at 0.01 µM: 23%
[4]
  growth at 0.1 µM: 10%
[5]
  growth at 0.1 µM: 40%
[6]
  growth at 0.1 µM: 44%
[7]
  growth at 0.1 µM: 30%
[8]
  growth at 0.1 µM: 29%
[9]
  growth at 1 µM: 42%
[10]
  growth at 1 µM: 16%
[11]
  growth at 1 µM: 5%
[12]
  growth at 1 µM: 29%
[13]
  growth at 1 µM: 8%
[14]
  growth at 1 µM: -9%
[15]
  growth at 1 µM: 28%
[16]
  growth at 1 µM: 18%
[17]
  growth at 1 µM: 69%
[18]
  growth at 10 µM: 3%
[19]
  growth at 10 µM: -15%
[20]
  growth at 10 µM: 20%
[21]
  growth at 10 µM: -11%
[22]
  growth at 10 µM: 14%
[23]
  growth at 100 µM: -26%
[24]
  growth at 100 µM: -78%
[25]
  growth at 100 µM: -36%
[26]
  growth at 100 µM: -22%
[27]
  growth at 100 µM: -36%
[28]; read-out: GI50
  GI50: < 0.01 µM
[28]; [32]
  CC50: > 100 µM
[28]; read-out: TGI
  TGI: 23.7 µM
[28]; read-out: pGI50 (converted)
  GI50: < 0.01 µM
[28]; [33]
  CC50: > 100 µM
[28]; read-out: pTGI (converted)
  TGI: 24 µM
[29]; read-out: GI50
  GI50: < 0.01 µM
[29]; [32]
  CC50: > 100 µM
[29]; read-out: TGI
  TGI: < 0.01 µM
[29]; read-out: pGI50 (converted)
  GI50: < 0.01 µM
[29]; [33]
  CC50: > 100 µM
[29]; read-out: pTGI
  TGI: < 0.01 µM
[30]; read-out: GI50
  GI50: < 0.01 µM
[30]; [32]
  CC50: > 100 µM
[30]; read-out: TGI
  TGI: 11.5 µM
[30]; read-out: pGI50 (converted)
  GI50: < 0.01 µM
[30]; [33]
  CC50: > 100 µM
[30]; read-out: pTGI (converted)
  TGI: 11.5 µM
[31]; read-out: GI50
  GI50: < 0.01 µM
[31]; read-out: LC50
  LC50: > 100 µM
[31]; read-out: TGI
  TGI: 12.9 µM
[31]; read-out: pGI50 (converted)
  GI50: < 0.01 µM
[31]; read-out: pLC50 (converted)
  LC50: > 100 µM
[31]; read-out: pTGI (converted)
  TGI: 12.9 µM
